From patent US10676792B2, “Prognostic and diagnostic methods for colorectal cancer” (The Regents of the University of California, priority 2015, dated 2020) come the findings set out here.

Each structure is given as a SMILES string.

This assay relates to P-Y1068-EGFR. The assay can be described thus: Western blot analysis of P-Y1068-EGFR in EGF-stimulated HCT15 cells treated with DGK inhibitor. The class given is cell-based, human. Particulars: versus DMSO control, pre-incubated 30 min. Here is the method:
Cells were plated in 6 or 10 cm dishes and starved for 2 h at 37 C in PBS. After resting, cells were EGF-stimulated for different time 3, 10 or 30 min. Cells were lysed with ice-cold 2% NP40 supplemented with protease and phosphatase inhibitors [10 mM sodium fluoride, 2 mM sodium orthovanadate, 0.5 mM EDTA, 2 mM phenyl-methylsulfonyl fluoride, 1 mM sodium molybdate, aprotonin (10 mg/ml), leupeptin (10 mg/ml), pepstatin (1 mg/ml)]. After 30 min on ice, lysates were centrifuged and supernatant were mix with 2× sample buffer. Protein lysates were separated on acrylamide gel 10%, transferred on PVDF membrane and incubated with primary antibodies of interest. Inhibitors such as Rottlerin (20 μM) and DGK were pre-incubated for 30 min before stimulation. Western blots were visualized with enhanced chemo-luminescence and imaging on a Fuji LAS 4000 image station (GE Healthcare). The protein bands in Western blots were quantified with Multi Gauge software, and densitometry (pixel intensity) was determined within the linear range of the exposure. Amounts of the proteins of interest were typically presented as a ratio of the indicated loading control. Values were then normalized to an indicated sample and noted as a fold difference. Results represent at least three independent experiments.

With `O=c1c2ccccc2[nH]c(=S)n1CCN1CCC(=C(c2ccc(F)cc2)c2ccc(F)cc2)CC1` [R59949], the P-Y1068-EGFR levels result was “decreased levels”.
